Consider one compound from US20150320787A1, “COBALAMIN COMPOSITIONS AND METHODS FOR TREATING OR PREVENTING MUCOSITIS” (OraHealth Corp., priority 2006, published 2015).

SMILES strings stand for the structures.

The nature of test [1]: Placebo-controlled test of adhering dissolving discs, one each day, in subjects with minor RAU at least monthly. Format: in vivo, human. Particulars: active group, seven subjects, discs with 500 mcg methylcobalamin, 30 discs, placebo discs with red food coloring. An excerpt: (§1) Troches in the form of dissolving muco-adhesive tablets may be made by pressing powders including mucoadhesive hydrocolloids. A preferred form of such an adhering troche may be made by mixing dry powders consisting of 80 percent acacia gum (gum arabic) for adhesive and 20 percent xylitol for flavor, then adding up to 1 percent carboxymethylcellulose (CMC), to enhance mouth feel, moderate adhesiveness of the acacia gum, and slow dissolution, and about 500 micrograms of cobalamin. The tablet may be pressed into the shape shown in FIG. 3 for good adhesion to a tooth. Such a tablet is suitably about 8 mm in diameter and about 85 milligrams in weight.
(§2) The typical instruction to users is to stick a troche in their mouths, just before they go to sleep, between teeth and cheek, placing it on the tongue side of the teeth if the patient suffers particularly from ulcers on or under the tongue and otherwise placing it on the cheek side. In greater detail, the instructions state: “Use after brushing teeth, at least one disc per day, and allow to dissolve for 30 minutes with nothing else in your mouth. In an area of your mouth where you experience sores, use your tongue to hold the dimpled side of the disc against a tooth until it adheres. The disc will slowly dissolve over 10 to 40 minutes, releasing cobalamin which is absorbed directly into the mouth lining tissues. […]

Test [2] is described as follows: Non-blinded test of active adhering dissolving discs in additional subjects. It is filed as in vivo, human.
Text: as §1, §2

On to `C/C1=C2/[N-][C@H]([C@H](CC(N)=O)[C@@]2(C)CCC(=O)NC[C@@H](C)OP(=O)([O-])O[C@H]2[C@@H](O)[C@@H](n3cnc4cc(C)c(C)cc43)O[C@@H]2CO)[C@]2(C)N=C(/C(C)=C3N=C(/C=C4N=C1[C@@H](CCC(N)=O)C\4(C)C)[C@@H](CCC(N)=O)[C@]\3(C)CC(N)=O)[C@@H](CCC(N)=O)[C@]2(C)CC(N)=O.[CH3-].[Co+3]` [methylcobalamin], for which the “subjects who reported a benefit (reduced frequency of minor RAU, reduced duration of ulcers, or reduced peak pain levels)” value in test [1] is listed as 100%. Moreover, the “time after stopping the discs until an ulcer with a pain level like before starting (mean)” value in test [2] (five subjects who reported a benefit and stopped using the discs) is recorded as 4.8 days. Further, in test [2] (twenty-five additional non-blinded subjects, active discs with 500 mcg methylcobalamin), the “subjects who reported a benefit of using the discs” value was found to be 96%.
